Test results from ChEMBL document CHEMBL1150634, “New dimeric macrolide glycosides from the marine sponge Myriastra clavosa” (J Nat Prod, 2002).
Activity calls are given as the source filed them.

How the values were obtained:
Assay type in all cases: functional, cell-based
NCI-H460 = test: Cytotoxicity against human H460 cells at 10 ug/mL after 2 days by XTT assay
K562 = test: Cytotoxicity against human K562 cells at 10 ug/mL after 2 days by XTT assay
COLO 205 = test: Cytotoxicity against human COLO205 cells at 10 ug/mL after 2 days by XTT assay
OVACR3 = test: Cytotoxicity against […] at 10 ug/mL after 2 days by XTT assay
LOX = test: Cytotoxicity against human LOX cells at 10 ug/mL after 2 days by XTT assay
MOLT-4 = test: Cytotoxicity against human MOLT4 cells at 10 ug/mL after 2 days by XTT assay
SNB-19 = test: Cytotoxicity against human SNB19 cells at 10 ug/mL after 2 days by XTT assay
MCF7 = test: Cytotoxicity against human MCF7 cells at 10 ug/mL after 2 days by XTT assay
A549 = test: Cytotoxicity against human A549 cells at 10 ug/mL after 2 days by XTT assay
Malme-3M = test: Cytotoxicity against human MALME-3M cells at 10 ug/mL after 2 days by XTT assay

Measured: Activity

CO[C@@H]1[C@@H](OC)[C@H](O[C@H]2C[C@H]3C[C@@H]([C@H]4C[C@@H]4C)OC(=O)C[C@@H]4O[C@@H](C[C@H](O[C@@H]5OC[C@@H](OC)[C@H](OC)[C@H]5OC)[C@H]4C)C[C@@H]([C@H]4C[C@@H]4C)OC(=O)C[C@H](O3)[C@@H]2C)OC[C@H]1O
inactive: all assays above
